Results from patent publication US8063225B2, “Tricyclic compound derivatives useful in the treatment of neoplastic diseases, inflammatory disorders and immunomodulatory disorders” (Chembridge Corporation, priority 2006, dated 2011).

Experiments:
[1] = target: T1, InsR (Homo sapiens, UniProt P06213); test: Tyrosine kinase assay (Kinase-Glo or AlphaScreen), InsR; conditions: biochemical tyrosine kinase assay
T1 construct: 6×His- or GST-tagged kinase domain fragments of the corresponding RTKs expressed in baculovirus system; host or cells: baculovirus system
T1 sequence (P06213 1023-1298 limits assumed, species assumed): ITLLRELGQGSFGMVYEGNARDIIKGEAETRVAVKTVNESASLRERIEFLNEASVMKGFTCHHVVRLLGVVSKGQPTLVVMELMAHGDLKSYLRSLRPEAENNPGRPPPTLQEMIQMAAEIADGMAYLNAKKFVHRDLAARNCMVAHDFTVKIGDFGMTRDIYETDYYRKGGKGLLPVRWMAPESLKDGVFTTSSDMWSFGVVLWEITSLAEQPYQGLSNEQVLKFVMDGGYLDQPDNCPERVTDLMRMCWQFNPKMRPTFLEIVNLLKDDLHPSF
Procedure, shortened: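 Test compounds, eight concentrations from 1 nM to 20 μM, were incubated with tagged recombinant kinase domain, poly(Glu-Tyr, 4:1) and 10 μM ATP. After 60 minutes at 37° C, Kinase-Glo luminescence quantified unconsumed ATP.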

[2] = target: T2, IGF1 receptor (Homo sapiens, UniProt P08069); test: ELISA-based assay of IGF1 receptor autophosphorylation inhibition in cells; format: cell-based; conditions: IGF1R phosphorylation inhibition in MCF7 cells
T2 construct: MCF7 human breast cancer cells expressing IGF1 receptor; endogenous in cells; host or cells: MCF7 human breast cancer cells
T2 sequence (P08069 741-1367 limits assumed): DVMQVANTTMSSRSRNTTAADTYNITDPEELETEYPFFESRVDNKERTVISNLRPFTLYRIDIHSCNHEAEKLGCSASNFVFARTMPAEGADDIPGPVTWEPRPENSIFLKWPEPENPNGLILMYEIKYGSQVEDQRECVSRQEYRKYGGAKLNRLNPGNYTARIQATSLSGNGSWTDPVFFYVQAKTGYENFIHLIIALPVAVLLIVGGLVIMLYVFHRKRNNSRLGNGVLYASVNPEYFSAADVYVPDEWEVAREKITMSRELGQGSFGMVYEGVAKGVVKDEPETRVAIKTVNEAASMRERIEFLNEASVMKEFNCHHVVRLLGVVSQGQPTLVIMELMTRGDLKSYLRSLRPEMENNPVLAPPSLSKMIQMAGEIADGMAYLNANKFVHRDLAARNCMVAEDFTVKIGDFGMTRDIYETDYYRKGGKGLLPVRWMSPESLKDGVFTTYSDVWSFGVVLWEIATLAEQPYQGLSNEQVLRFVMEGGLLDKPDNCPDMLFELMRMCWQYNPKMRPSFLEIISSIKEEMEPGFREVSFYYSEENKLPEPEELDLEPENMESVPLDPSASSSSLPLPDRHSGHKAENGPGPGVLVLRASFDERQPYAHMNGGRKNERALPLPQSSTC
T2 sequence (P08069 31-736 partner limits assumed): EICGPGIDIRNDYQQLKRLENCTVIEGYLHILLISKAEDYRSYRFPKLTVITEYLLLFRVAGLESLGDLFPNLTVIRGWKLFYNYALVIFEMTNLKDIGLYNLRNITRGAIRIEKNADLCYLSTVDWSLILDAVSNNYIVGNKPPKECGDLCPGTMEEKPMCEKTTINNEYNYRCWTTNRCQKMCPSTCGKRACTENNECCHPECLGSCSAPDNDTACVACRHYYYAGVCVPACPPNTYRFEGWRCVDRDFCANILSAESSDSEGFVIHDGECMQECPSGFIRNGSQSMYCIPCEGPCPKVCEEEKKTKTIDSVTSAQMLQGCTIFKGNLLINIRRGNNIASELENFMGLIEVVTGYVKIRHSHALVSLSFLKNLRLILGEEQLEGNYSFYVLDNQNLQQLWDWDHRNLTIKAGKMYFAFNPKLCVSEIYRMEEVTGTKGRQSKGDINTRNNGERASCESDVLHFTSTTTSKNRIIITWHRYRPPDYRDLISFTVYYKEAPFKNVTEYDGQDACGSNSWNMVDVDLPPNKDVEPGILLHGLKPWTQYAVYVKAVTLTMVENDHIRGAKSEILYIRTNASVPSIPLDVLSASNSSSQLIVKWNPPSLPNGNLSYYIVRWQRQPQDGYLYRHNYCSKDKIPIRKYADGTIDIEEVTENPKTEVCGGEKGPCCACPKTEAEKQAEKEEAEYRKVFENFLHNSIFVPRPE
Protocol: In another embodiment, compounds that interact with the IGF1R kinase domain are tested in a cell-based assay system. In accordance with this embodiment, cells expressing a full-length IGF1 receptor or a fragment thereof containing the IGF1R kinase domain, are contacted with a candidate or a control compound and the ability of the compound to block tyrosine kinase activity of IGF1R within a cell is determined. This assay may be used to screen a single compound or a large library of candidate compounds. Typically, the cells or cell lines are of mammalian origin and they can express the IGF1 receptor, or functional IGF1R kinase domain fragment, endogenously or be genetically engineered to express the IGF1R, or functional fragment thereof. The ability of the candidate compound to inhibit IGF1R kinase activity can be determined by methods known to those skilled in the art. For example, the inhibition can be determined by ELISA-type assay or Western blot analysis with cell lysates or immunoprecipitated IGF1R receptor using various anti-IGF1R and anti-phosphotyrosine antibodies.
In general, cells expressing IGF1R are treated with modulators (i.e., inhibitors or activators) of IGF1R kinase activity and cell lysates are produced from these treated cells. IGF1Rs are isolated from the lysate by immunoprecipitation and analyzed for phosphotyrosine content. Alternatively, or in addition, cellular protein substrates phosphorylated by IGFR may be immunoprecipitated from the lysates and their degree of tyrosine phosphorylation determined.
MCF7 human breast cancer cells expressing IGF1 receptor or an engineered […] fibroblast cell line NIH 3T3 overexpressing full-length IGF1R are an exemplary cellular models in which to perform such assays. Such cells may be maintained in DMEM medium supplemented with 10% fetal bovine serum (FBS), 4% L-glutamine, 1% antibiotic solution (penicillin-Streptomycin) in a humidified atmosphere of 95% air and 5% CO2 at 37° C. Confluent cells in T175 cell culture flasks are incubated overnight with serum-free DMEM medium. After the serum starvation step, the cells are detached and split into a standard 96-well cell culture plate (one T175 flask per plate, 30 μl of cell suspension per plate well). Tested inhibitors from their 10 mM stock solutions in DMSO are subsequently added at various concentrations in serum-free DMEM medium for 1 hour incubation at 37° C. in CO2-incubator; total DMSO concentration in both treated and control wells is adjusted to 1%. Cells are then stimulated for 10 minutes with 100 nM IGF-1 added in 30 μl DMEM. After treatment, cells are lysed by addition of 30 μl of 4× lysis buffer (phosphate-buffered saline (PBS), 2% Triton-X100, 1 mM phenylmethylsulphonyl fluoride (PMSF) and 8 mM activated orthovanadate), mixing and incubation for 15 minute at room temperature. To prepare assay plates, 96-well ELISA Plates (Pierce Chemical, Reacti-bind plates) were coated by goat-anti-rabbit Fc antiserum by adding 0.25 μg antiserum per well in 0.2M sodium bicarbonate buffer per well and incubating overnight at 4° C. After incubation, the plate is washed three times by PBS with 0.02% Tween-20, supplied with 25 ng/50 μl per well of anti-IGF1R antibody (C-20, Santa Cruz Biotechnology) and incubated for several hours to overnight. Prior to the addition of the prepared cellular lysates, the antibody solution is aspirated, wells washed with PBS and supplied with 25 μl per well of Starting Block buffer (Pierce Chemical).
To measure tyrosine phosphorylation of the beta-subunits of the IGF1R, 25-50 μl of the lysates are transferred from the stimulation plate to the wells of the prepared assay plate and incubated overnight at 4° C. The wells are washed with PBS with 0.02% Tween-20, incubated with 50 μl of 1:3000 dilution of anti-phosphotyrosine 4G10-HRP antibody conjugate (Upstate Biotechnology) for 2 hours at room temperature and washed again. […]

Row | SMILES | IC50 [1] [µM] | IC50 [2] [µM]
1 | CN1CCC(N2C(=O)c3cc4nc(-c5c(N[C@H](CO)Cc6c[nH]cn6)cc[nH]c5=O)[nH]c4cc3C2=O)CC1 [compound 2] | > 15 | > 15
2 | COc1cccc(OCC(O)CNc2cc[nH]c(=O)c2-c2nc3cc4c(cc3[nH]2)C(=O)N(C2CCN(C)CC2)C4=O)c1 (centres unmarked) [compound 6] | 0.5 to 5 | 0.5 to 5
3 | CC(C)(CO)CN1C(=O)c2cc3nc(-c4c(NC[C@@H](O)c5cccc(Cl)c5)cc[nH]c4=O)[nH]c3cc2C1=O [compound 26] | 5 to 15 | 5 to 15
4 | O=C1c2cc3nc(-c4c(NC[C@@H](O)c5cccc(Cl)c5)cc[nH]c4=O)[nH]c3cc2C(=O)N1CCc1ccncc1 [compound 28] | 5 to 15 | > 15
5 | O=C1c2cc3nc(-c4c(NC[C@@H](O)c5cccc(Cl)c5)cc[nH]c4=O)[nH]c3cc2C(=O)N1C[C@@H]1CCCO1 [compound 29] | > 15 | > 15
6 | C[C@H](O)CN1C(=O)c2cc3nc(-c4c(NC[C@@H](O)c5cccc(Cl)c5)cc[nH]c4=O)[nH]c3cc2C1=O [compound 31] | 0.5 to 5 | 5 to 15
7 | Cc1ncsc1CCN1C(=O)c2cc3nc(-c4c(NC[C@@H](O)c5cccc(Cl)c5)cc[nH]c4=O)[nH]c3cc2C1=O [compound 32] | > 15 | 5 to 15
8 | O=C1c2cc3nc(-c4c(NC[C@@H](O)c5cccc(Cl)c5)cc[nH]c4=O)[nH]c3cc2C(=O)N1[C@@H]1CN2CCC1CC2 [compound 33] | < 0.5 | > 15
9 | O=C1c2cc3nc(-c4c(NC[C@@H](O)c5cccc(Cl)c5)cc[nH]c4=O)[nH]c3cc2C(=O)N1[C@H]1CN2CCC1CC2 [compound 34] | 0.5 to 5 | > 15
10 | Cc1ccc(OC[C@@H](O)CNc2cc[nH]c(=O)c2-c2nc3cc4c(cc3[nH]2)C(=O)N(C2CCN(C)CC2)C4=O)c(C)c1 [compound 64] | 0.5 to 5 | > 15
11 | Cc1cc(C)c(OC[C@H](O)CNc2cc[nH]c(=O)c2-c2nc3cc4c(cc3[nH]2)C(=O)N(C2CCN(C)CC2)C4=O)c(CS(C)(=O)=O)c1 [compound 84] | 0.5 to 5 | 0.5 to 5
12 | CN1CCC(N2C(=O)c3cc4nc(-c5c(NC[C@@H](O)COc6ccc7ccccc7c6)cc[nH]c5=O)[nH]c4cc3C2=O)CC1 [compound 88] | 0.5 to 5 | 0.5 to 5
13 | CN1CCC(N2C(=O)c3cc4nc(-c5c(NC[C@@H](O)COc6cccc(-c7ccccc7)c6)cc[nH]c5=O)[nH]c4cc3C2=O)CC1 [compound 89] | 0.5 to 5 | 0.5 to 5
14 | CN1CCC(N2C(=O)c3cc4nc(-c5c(NC[C@@H](O)COc6cccc(OC(F)(F)C(F)F)c6)cc[nH]c5=O)[nH]c4cc3C2=O)CC1 [compound 91] | 0.5 to 5 | 0.5 to 5
15 | Cc1cc(C)n(C[C@H](O)CNc2cc[nH]c(=O)c2-c2nc3cc4c(cc3[nH]2)C(=O)N(C2CCN(C)CC2)C4=O)n1 [compound 92] | 5 to 15 | 0.5 to 5
16 | CN1CCC(N2C(=O)c3cc4nc(-c5c(NC[C@@H](O)COc6cccc(C(F)(F)F)c6)cc[nH]c5=O)[nH]c4cc3C2=O)CC1 [compound 97] | 0.5 to 5 | 0.5 to 5
17 | Cc1ccc(OC[C@H](O)CNc2cc[nH]c(=O)c2-c2nc3cc4c(cc3[nH]2)C(=O)N(C2CCN(C)CC2)C4=O)cc1Cl [compound 99] | 0.5 to 5 | > 15
18 | Cc1cc(C)c(OC[C@H](O)CNc2cc[nH]c(=O)c2-c2nc3cc4c(cc3[nH]2)C(=O)N(C2CCN(C)CC2)C4=O)cc1Cl [compound 108] | 0.5 to 5 | 5 to 15
19 | Cc1ccc(OC[C@H](O)CNc2cc[nH]c(=O)c2-c2nc3c(C)c4c(cc3[nH]2)C(=O)N(C2CCN(C)CC2)C4=O)c(C)c1 [compound 110] | < 0.5 | 5 to 15
20 | Cc1ccc(Cl)c(C)c1OC[C@H](O)CNc1cc[nH]c(=O)c1-c1nc2cc3c(cc2[nH]1)C(=O)N(C1CCN(C)CC1)C3=O [compound 111] | 0.5 to 5 | > 15
21 | Cc1ccc(OC[C@H](O)CNc2cc[nH]c(=O)c2-c2nc3cc4c(cc3[nH]2)CN(C2CCN(C)CC2)C4=O)c(C)c1 [compound 130] | < 0.5 | 0.5 to 5
22 | Cc1ccc2c(ccn2C[C@H](O)CNc2cc[nH]c(=O)c2-c2nc3cc4c(cc3[nH]2)C(=O)N(C2CCN(C)CC2)C4=O)c1 [compound 131] | 0.5 to 5 | 0.5 to 5
23 | Cc1ccc(OC[C@H](O)CNc2cc[nH]c(=O)c2-c2nc3cc4c(c(C)c3[nH]2)CN(C2CCN(C)CC2)C4=O)c(C)c1 [compound 132] | < 0.5 | 0.5 to 5
24 | Cc1ccc(OC[C@H](O)CNc2cc[nH]c(=O)c2-c2nc3c(C)c4c(cc3[nH]2)C(=O)N(C2CCN(C)CC2)C4)c(C)c1 [compound 139] | < 0.5 | 0.5 to 5
25 | Cc1ccc(OC[C@H](O)CNc2cc[nH]c(=O)c2-c2nc3c(C)c4c(cc3[nH]2)CN(C2CCN(C)CC2)C4=O)c(C)c1 [compound 140] | < 0.5 | 0.5 to 5

Other lines, results leading:

Row | IC50 [1] [µM] | IC50 [2] [µM] | SMILES
26 | < 0.5 | < 0.5 | CN1CCC(N2C(=O)c3cc4nc(-c5c(NC[C@@H](O)c6cccc(Cl)c6)cc[nH]c5=O)[nH]c4cc3C2=O)CC1 [compound 1]
27 | < 0.5 | 0.5 to 5 | Cc1ccc(OCC(O)CNc2cc[nH]c(=O)c2-c2nc3cc4c(cc3[nH]2)C(=O)N(C2CCN(C)CC2)C4=O)c(C)c1 (centres unmarked) [compound 15]
28 | < 0.5 | 5 to 15 | Cc1ccc(OCC(O)CNc2cc[nH]c(=O)c2-c2nc3cc4c(cc3[nH]2)C(=O)N(CC2CCN(CCO)CC2)C4=O)c(C)c1 (centres unmarked) [compound 37]
29 | < 0.5 | 0.5 to 5 | Cc1ccc(OC[C@H](O)CNc2cc[nH]c(=O)c2-c2nc3cc4c(cc3[nH]2)C(=O)N(C2CCN(C)CC2)C4=O)c(C)c1 [compound 59]
30 | < 0.5 | 0.5 to 5 | CN1CCC(N2C(=O)c3cc4nc(-c5c(NC[C@@H](O)COc6cccc7ccccc67)cc[nH]c5=O)[nH]c4cc3C2=O)CC1 [compound 87]
31 | < 0.5 | 0.5 to 5 | COc1ccc(OC[C@H](O)CNc2cc[nH]c(=O)c2-c2nc3cc4c(cc3[nH]2)C(=O)N(C2CCN(C)CC2)C4=O)c(OC)c1OC [compound 93]
32 | < 0.5 | 0.5 to 5 | Cc1c(Cl)cccc1OC[C@H](O)CNc1cc[nH]c(=O)c1-c1nc2cc3c(cc2[nH]1)C(=O)N(C1CCN(C)CC1)C3=O [compound 94]
33 | < 0.5 | 5 to 15 | CN1CCC(N2C(=O)c3cc4nc(-c5c(NC[C@@H](O)COc6c(F)ccc(Cl)c6F)cc[nH]c5=O)[nH]c4cc3C2=O)CC1 [compound 95]
34 | < 0.5 | 5 to 15 | CN1CCC(N2C(=O)c3cc4nc(-c5c(NC[C@@H](O)COc6cccc(Cl)c6F)cc[nH]c5=O)[nH]c4cc3C2=O)CC1 [compound 96]
35 | < 0.5 | 5 to 15 | Cc1cc(C)c(OC[C@H](O)CNc2cc[nH]c(=O)c2-c2nc3cc4c(cc3[nH]2)C(=O)N(C2CCN(C)CC2)C4=O)c(C)c1 [compound 98]
36 | < 0.5 | 5 to 15 | Cc1ccc(OC[C@@H](O)CNc2cc[nH]c(=O)c2-c2nc3cc4c(cc3[nH]2)C(=O)N([C@H]2CCN(C)C2)C4=O)c(C)c1 [compound 106]
37 | < 0.5 | 5 to 15 | Cc1ccc(OC[C@@H](O)CNc2cc[nH]c(=O)c2-c2nc3cc4c(cc3[nH]2)C(=O)N([C@@H]2CCN(C)C2)C4=O)c(C)c1 [compound 107]
